Laboratory results published in the NIST ThermoML archive (doi:10.1021/je101156d).
Numbers after ± are expanded uncertainties.

Assay: mn = molality of the nth substance listed, in mol/kg
Settings: 101.3 kPa, Liquid, Dip Cell

CC(CN1c2ccccc2Sc2ccccc21)N(C)C.Cl (stereo not given) [promethazine hydrochloride] + O
electrical conductivity [S/m]
Settings | 293.15 K | 303.15 K | 313.15 K | 323.15 K
m1 = 0.00484 | 0.029 ± 0.04 | 0.039 ± 0.04 | 0.05 ± 0.04 | 0.063 ± 0.04
m1 = 0.00938 | 0.065 ± 0.04 | 0.075 ± 0.04 | 0.092 ± 0.04 | 0.105 ± 0.04
m1 = 0.0136 | 0.099 ± 0.04 | 0.109 ± 0.04 | 0.131 ± 0.04 | 0.144 ± 0.04
m1 = 0.0176 | 0.13 ± 0.04 | 0.14 ± 0.04 | 0.167 ± 0.04 | 0.18 ± 0.04
m1 = 0.0214 | 0.159 ± 0.04 | 0.169 ± 0.04 | 0.199 ± 0.04 | 0.212 ± 0.04
m1 = 0.025 | 0.184 ± 0.04 | 0.194 ± 0.04 | 0.229 ± 0.04 | 0.242 ± 0.04
m1 = 0.0284 | 0.208 ± 0.04 | 0.218 ± 0.04 | 0.257 ± 0.04 | 0.27 ± 0.04
m1 = 0.0316 | 0.23 ± 0.04 | 0.24 ± 0.04 | 0.285 ± 0.04 | 0.298 ± 0.04
m1 = 0.0346 | 0.251 ± 0.04 | 0.261 ± 0.04 | 0.309 ± 0.04 | 0.322 ± 0.04
m1 = 0.0375 | 0.271 ± 0.04 | 0.281 ± 0.04 | 0.332 ± 0.04 | 0.345 ± 0.04
m1 = 0.0402 | 0.289 ± 0.04 | 0.299 ± 0.04 | 0.353 ± 0.04 | 0.366 ± 0.04
m1 = 0.0429 | 0.307 ± 0.04 | 0.317 ± 0.04 | 0.376 ± 0.04 | 0.389 ± 0.04
m1 = 0.0453 | 0.327 ± 0.04 | 0.337 ± 0.04 | 0.395 ± 0.04 | 0.408 ± 0.041
m1 = 0.0477 | 0.336 ± 0.04 | 0.346 ± 0.04 | 0.413 ± 0.041 | 0.426 ± 0.043
m1 = 0.05 | 0.347 ± 0.04 | 0.357 ± 0.04 | 0.428 ± 0.043 | 0.447 ± 0.045
m1 = 0.0522 | 0.358 ± 0.04 | 0.368 ± 0.04 | 0.44 ± 0.044 | 0.457 ± 0.046
m1 = 0.0543 | 0.369 ± 0.04 | 0.379 ± 0.04 | 0.45 ± 0.045 | 0.467 ± 0.047
m1 = 0.0563 | 0.38 ± 0.04 | 0.39 ± 0.04 | 0.46 ± 0.046 | 0.477 ± 0.048
m1 = 0.0582 | 0.391 ± 0.04 | 0.401 ± 0.04 | 0.47 ± 0.047 | 0.487 ± 0.049
m1 = 0.06 | 0.402 ± 0.04 | 0.412 ± 0.041 | 0.48 ± 0.048 | 0.497 ± 0.05
m1 = 0.0618 | 0.41 ± 0.041 | 0.42 ± 0.042 | 0.488 ± 0.049 | 0.505 ± 0.051
m1 = 0.0635 | 0.417 ± 0.042 | 0.427 ± 0.043 | 0.496 ± 0.05 | 0.513 ± 0.051
m1 = 0.0651 | 0.424 ± 0.042 | 0.434 ± 0.043 | 0.504 ± 0.05 | 0.52 ± 0.052
m1 = 0.0667 | 0.431 ± 0.043 | 0.441 ± 0.044 | 0.512 ± 0.051 | 0.527 ± 0.053
m1 = 0.0682 | 0.438 ± 0.044 | 0.448 ± 0.045 | 0.52 ± 0.052 | 0.534 ± 0.053
m1 = 0.0696 | 0.445 ± 0.045 | 0.455 ± 0.046 | 0.528 ± 0.053 | 0.54 ± 0.054
m1 = 0.0711 | 0.452 ± 0.045 | 0.462 ± 0.046 | 0.536 ± 0.054 | 0.546 ± 0.055
m1 = 0.0724 | 0.459 ± 0.046 | 0.469 ± 0.047 | 0.542 ± 0.054 | 0.552 ± 0.055
m1 = 0.0737 | 0.466 ± 0.047 | 0.476 ± 0.048 | 0.548 ± 0.055 | 0.557 ± 0.056
m1 = 0.075 | 0.473 ± 0.047 | 0.483 ± 0.048 | 0.554 ± 0.055 | 0.562 ± 0.056
